“And” between values parts separate entries of the source, which are not always exact repeats. Identical values can stand only once.
Assays:
MCF-7 cells [1] = experiment: Cell cycle analysis (DNA flow cytometry, PI); conditions: for Phase of cell cycle arrest: MCF-7, compound at its IC50; for Cell cycle arrest (%) G0-G1 / Cell cycle arrest (%) G2/M / Cell cycle arrest (%) S: MCF-7, compound at its IC50, 24 h
Method: Cell cycle analysis: A FACS Calibur flow cytometer was used to measure the amount of DNA in the cell cycle analysis at 488 nm in accordance with the manufacturer’s recommendations. […] Cells were treated, rinsed twice, and then re-suspended in ice-cold PBS (phosphate buffer saline). After washing, 0.7 ml of 100% ethanol was added, and the mixture was then allowed to sit at 20 °C for 20 min. After washing, 500 μl of RNase was added, and then the mixture was incubated for 30 min. After that, PI was added, and the mixture was incubated without light for 30 min[22]^,[51].
3 Replica for each group Data was expressed using Mean ± SEM.
F: F for One way ANOVA test, Pairwise comparison bet. each 2 groups was done using Post Hoc Test (Tukey)
p: p value for comparing between the studied groups
p0: p value for comparing between Control and each other group
p1: p value for comparing between 5h and 5b
p2: p value for comparing between 5h and Dox
p3: p value for comparing between 5b and Dox
DNA content in the cell cycle analysis was quantified with the help ofa FACS Calibur flow
cytometer at 488 nm according to the manufacturer's instructions. Briefly, 2 × 10^5 cells/well were
cells were washed two times and resuspended in ice-cold phosphate buffer saline PBS. After
washing, 0.7 ml absolute ethanol was then added, followed by incubation at −20°C for 20 min.
After washing, 500 μl RNase was added, followed by incubation for 30 min. PI was then added,
followed by incubation for 30 min (light was avoided).

[2] = tested on: human breast adenocarcinoma (MCF-7); experiment: MTT cytotoxicity assay, MCF-7; format: cell-based; conditions: for IC50: Homo sapiens, MCF7, MTT, 24 h treatment, read-out: IC50 against MCF-7; for folds more active than doxorubicin: MCF-7; for Selectivity Index (SI): against MCF-7, relative to normal MCF-10a
Method: (§1) (Supplementary file). Compounds 5b and 5h were screened for their effects on the normal breast cell line MCF‐10a. Cells at a density of 1 × 104 were seeded in a 96‐well plate at 37 °C for 48 h under 5% CO2. After incubation, the cells were treated with different concentrations of the prepared molecules and incubated for 24 h. MTT dye was added after 24 h of drug treatment and incubated for 4 h at 37 °C. Also, 100 μl of dimethyl sulphoxide was added to each well to dissolve the purple formazan formed. The colour intensity of the formazan product, which represents the growth condition of the cells, was quantified using an enzyme‐linked immunosorbent assay (ELISA) plate reader at 570 nm. The experiments were carried out with at least three replicates and they were repeated at least three times.
(§2) All chemicals, solvents, media and kits were purchased from commercial suppliers.
(§3) In vitro anticancer screening […]
(§4) against three cancer cell lines namely: hepatocellular carcinoma (HepG2), human breast adenocarcinoma (MCF-7) and human colon cancer (HCT -116) utilizing MTT assay2. Compounds […]
(§5) 5b and 5h were screened for their effects on the normal breast cell line MCF‐10a. Cells at a density of 1 × 104 were seeded in a 96‐well plate at 37°C for 48 hr under 5% CO2. After incubation, the cells were treated with different concentrations of the prepared molecules and incubated for 24 hr.
(§6) MTT dye was added after 24 h of drug treatment and incubated for 4 h at 37°C. Also, 100 μl of dimethyl sulphoxide was added to each well to dissolve the purple formazan formed. The color intensity of the formazan product, which represents the growth condition of the cells, was quantified using an enzyme‐linked immunosorbent assay (ELISA) plate reader at 570 nm. The experiments were carried out with at least three replicates and they were repeated at least three […]
(§7) *: Statistically significant at p ≤ 0.05
(§8) Means with any Common letter (a-e) are not significant (OR Means with totally Different letters (a-e) are significant)

[3] = target: T1, human DNA topoisomerase II-β (TOPII-β) (Homo sapiens, UniProt Q02880); experiment: In vitro topoisomerase II inhibitory assay (ELISA kit); format: biochemical; conditions: ELISA kit MBS#942146; read-out: IC50 against topo II enzyme
T1 construct: own knowledge) MBS#942146
T1 sequence (Q02880 whole entry): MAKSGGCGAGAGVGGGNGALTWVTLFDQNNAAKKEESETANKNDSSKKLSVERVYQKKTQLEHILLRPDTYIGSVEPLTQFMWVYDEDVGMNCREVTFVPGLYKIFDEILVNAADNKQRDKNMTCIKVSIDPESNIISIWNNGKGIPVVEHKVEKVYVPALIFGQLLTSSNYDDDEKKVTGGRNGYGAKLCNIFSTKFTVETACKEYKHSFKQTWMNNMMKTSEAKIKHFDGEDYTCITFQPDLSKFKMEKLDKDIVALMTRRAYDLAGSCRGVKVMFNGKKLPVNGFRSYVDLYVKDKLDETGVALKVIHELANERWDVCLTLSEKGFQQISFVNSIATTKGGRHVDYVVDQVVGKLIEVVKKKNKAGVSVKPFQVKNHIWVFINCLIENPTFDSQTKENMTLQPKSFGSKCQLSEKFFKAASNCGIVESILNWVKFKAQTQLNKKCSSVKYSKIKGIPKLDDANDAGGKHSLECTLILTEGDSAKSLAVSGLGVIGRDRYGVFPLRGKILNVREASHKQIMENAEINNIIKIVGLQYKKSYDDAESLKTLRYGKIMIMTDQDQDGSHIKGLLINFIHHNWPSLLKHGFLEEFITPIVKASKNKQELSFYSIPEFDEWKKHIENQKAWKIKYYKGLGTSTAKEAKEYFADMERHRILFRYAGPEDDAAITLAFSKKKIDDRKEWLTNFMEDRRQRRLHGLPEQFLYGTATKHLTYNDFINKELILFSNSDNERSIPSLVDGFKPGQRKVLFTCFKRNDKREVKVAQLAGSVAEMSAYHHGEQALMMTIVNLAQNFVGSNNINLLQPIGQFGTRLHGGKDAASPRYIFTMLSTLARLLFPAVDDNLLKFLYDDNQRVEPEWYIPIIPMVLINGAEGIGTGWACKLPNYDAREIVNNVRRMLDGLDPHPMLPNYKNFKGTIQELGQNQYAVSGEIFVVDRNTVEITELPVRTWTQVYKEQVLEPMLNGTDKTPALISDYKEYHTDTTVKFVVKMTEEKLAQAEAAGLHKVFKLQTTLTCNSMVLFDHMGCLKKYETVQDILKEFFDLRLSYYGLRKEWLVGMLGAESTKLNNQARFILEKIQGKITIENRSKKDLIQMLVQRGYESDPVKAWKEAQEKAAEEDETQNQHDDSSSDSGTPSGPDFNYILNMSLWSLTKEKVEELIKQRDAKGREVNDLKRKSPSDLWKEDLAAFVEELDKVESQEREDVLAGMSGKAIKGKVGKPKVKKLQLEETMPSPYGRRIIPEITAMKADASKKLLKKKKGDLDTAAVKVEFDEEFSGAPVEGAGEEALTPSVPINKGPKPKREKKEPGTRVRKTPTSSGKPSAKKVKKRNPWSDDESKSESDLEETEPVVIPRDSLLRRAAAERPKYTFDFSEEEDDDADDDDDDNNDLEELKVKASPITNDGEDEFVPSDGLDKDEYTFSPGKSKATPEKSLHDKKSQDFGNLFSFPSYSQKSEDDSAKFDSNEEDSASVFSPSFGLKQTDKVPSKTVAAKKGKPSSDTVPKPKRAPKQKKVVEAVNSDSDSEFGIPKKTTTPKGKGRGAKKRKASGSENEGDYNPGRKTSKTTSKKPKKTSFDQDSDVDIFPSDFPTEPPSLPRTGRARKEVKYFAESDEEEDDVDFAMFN
Source text: Doxorubicin was used as a positive control. […] (Supplementary file).
SEM: Standard error of mean
as §7
Means with any Common letter (a-d) are not significant (OR Means with totally Different letters (a-d) are significant)
Doxorubicin was used as a positive control.

[4] = tested on: human colon cancer (HCT-116); experiment: MTT cytotoxicity assay, HCT-116; format: cell-based; conditions: 24 h treatment, read-out: IC50 against HCT-116
Method: as §2, §3, §4, §5, §6, §7, §8

MCF-7 cells [5] = experiment: Annexin V-FITC/PI apoptosis induction analysis (flow cytometry); format: cell-based, human; conditions: MCF-7, compound at its IC50, 24 h
[6] = tested on: hepatocellular carcinoma (HepG2); experiment: MTT cytotoxicity assay, HepG2; format: cell-based; conditions: Homo sapiens, 24 h treatment, read-out: IC50 against HepG2
Method: as §1, §2, §3, §4, §5, §6, §7, §8

[7] = tested on: normal breast cell line (MCF-10a); experiment: MTT cytotoxicity assay, normal breast cell line MCF-10a; format: cell-based; conditions: Homo sapiens, 24 h treatment, read-out: IC50 against MCF-10a (normal cell)
Method: as §1, §5, §6, §7
Means with any Common letter (a-e) are not significant (OR Means with totally Different letters (a-e) are significant) Annexin V-FITC/PI Apoptosis Induction Analysis 3
Apoptosis detection in MCf-7 cells was assessed using BioVision® annexin‐V‐FITC apoptosis detection kit according to the manufacturer's instructions and quantified by flow cytometry at 488

calf thymus DNA (ctDNA) = experiment: Terbium (Tb3+) luminescent biosensor detection of induced DNA damage; format: biochemical; conditions: for Tb luminescence enhancement (induced DNA damage): ctDNA incubated with compound 24 h, emission 545 nm, excitation 270 nm, compared with ctDNA-Tb mixture; for Concentration at which Tb luminescence stops increasing (maximum DNA damage) / LOD (limit of detection; minimum concentration inducing detectable damage in ctDNA) / LOQ (limit of quantitation): ctDNA, 24 h incubation
Source text: Luminescence studies were accomplished in order to examine the possible DNA interaction with the studied compounds. Many luminescent biosensors are reported in literature for studying the possibility of DNA interaction with small molecules. […] Figure 5 presents a schematic diagram for the fluorometric detection of the induced DNA damage using Tb biosensor. Tb^3+ ion in the Tb luminescent probe is a trivalent lanthanide cation having low intrinsic luminescence in aqueous solutions[45]^,[46]. When Tb biosensor is added to a solution of DNA, it interacts differently with double-stranded DNA (dsDNA) and single-stranded DNA (ssDNA). With dsDNA, Tb^3+ ions are electrostatically attracted to the negatively charged phosphate backbone of the DNA. […] Therefore, the assessed compound damages dsDNA, ssDNA sites would be formed opposite to the site of damage and Tb^3+ would directly coordinate to the unpaired nucleobases in this single-stranded site.
For investigating the DNA interaction potential of the fourteen studied compounds, calf thymus DNA (ctDNA) was incubated with each compound for 24 h and then Tb was added to each mixture. Doxorubicin (DOX), a commonly used reference for DNA damaging agent was used and treated the same condition as the studied compounds. Tb luminescent intensity was measured at λmax = 545 nm after excitation at λmax = 270 nm.
Several concentrations within the range of 0.1 pM–200.0 μM of each of the studied compounds were incubated with ctDNA for 24 h. After which, Tb solution was added to aliquots of such mixtures and the luminescence intensity was recorded. Figure 7 presents Tb luminescence intensity as a function of the compound concentration for various compound/ctDNA/Tb mixtures. At minimum concentration of the studied compounds, minimum Tb luminescence was recorded. This reflects that the DNA molecule is undamaged, intact and acquiring a double helical structure. In this conformation, Tb ions are electrostatically attracted to the negatively charged DNA-phosphate backbone showing no increase in its luminescence. For solutions with higher concentrations of compounds 5b, 5h, and 5j (Figure 7a,c,and d). Tb fluorescence increased proportionally with the concentration until a concentration of 100 and 60 μM for compounds 5b, 5h, and 5j, respectively, where no further increase in the fluorescence occurs. This reflects that more DNA damage is induced with increasing concentrations of the three compounds. At concentrations higher than 100 and 60 μM for compounds 5b, 5h, and 5j, respectively, Tb luminescence remains constant at high fluorescence levels. […] Table 1 illustrates the analytical parameters elucidated as shown in Figure 7 for the quantification of the induced DNA damage by the studied compounds. The linearity parameters were calculated from the calibration curve in Figure 7-inset in order to obtain the minimum concentration of the studied compounds that would induce DNA damage.
Fluorescence measurements: Fluorescence spectra were measured between 290 and 800 nm with excitation at 270 nm of 100 µL solutions in a 1 cm path length Suprasil quartz fluorescence cuvette.
The PerkinElmer LS 55 fluorescence spectrophotometer was used to measure the fluorescence. After 24 h of incubation in buffer solution (40 mM Tris, 10 mM NaCl, pH 7.5), aliquots of each DNA-Compound mixture were combined with TbCl3 to confirm DNA damage. The final concentrations were […] ctDNA, 3 mM TbCl3, and 50 µM of each compound in buffer solution (40 mM Tris, 10 mM NaCl, pH 7.5). Calf thymus DNA (ctDNA) was combined with various quantities of each substance, ranging from 0.1 pM to 200 µM, for the experiment. The ultimate concentrations of […] ctDNA and 3 mM were achieved by adding Tb3 + solution to the ctDNA/compound combinations in buffer solution (40 mM Tris, 10 mM NaCl, pH 7.5) after 24 h of incubation.[44]
All chemicals, solvents, media and kits were purchased from commercial suppliers. […]

Compound | Phase of cell cycle arrest (MCF-7 cells [1]) | Cell cycle arrest (%) G0-G1 (MCF-7 cells [1]) [%] | Cell cycle arrest (%) G2/M (MCF-7 cells [1]) [%] | Cell cycle arrest (%) S (MCF-7 cells [1]) [%] | melting point [°C] | IC50 [2] [µM] | folds more active than doxorubicin [2] [folds] | Selectivity Index (SI) [2] | IC50 [3] [µM] | IC50 [4] [µM] | Apoptosis results: Early apoptosis (MCF-7 cells [5]) [%] | Apoptosis results: Late apoptosis (MCF-7 cells [5]) | Apoptosis results: Necrosis (MCF-7 cells [5]) [%] | Apoptosis results: Total (MCF-7 cells [5]) [%] | IC50 [6] [µM] | IC50 [7] [µM] | Tb luminescence enhancement (induced DNA damage) (calf thymus DNA (ctDNA)) | Concentration at which Tb luminescence stops increasing (maximum DNA damage) (calf thymus DNA (ctDNA)) [µM] | LOD (limit of detection; minimum concentration inducing detectable damage in ctDNA) (calf thymus DNA (ctDNA)) [nM] | LOQ (limit of quantitation) (calf thymus DNA (ctDNA)) [nM]
O=C1C(=Nn2cc(-c3ccc(Cl)cc3)n(-c3ccccc3)c2=S)c2cccc3cccc1c23 [5h, 2-((4-(4-chlorophenyl)-3-phenyl-2-thioxo-2,3-dihydro-1H-imidazol-1-yl)imino)-acenaphthylen-1(2H)-one] | S phase | 48.6 ± 0.73 | 9.7 ± 0.36 | 41.7 ± 0.39 | 260 to 262 | 2.65 | 3 | 49.27 | 0.34 | 43.5 | 16.5 ± 0.64 | 28.4 ± 0.62% and 28.52% | 7.5 ± 0.68 | 52.5 ± 0.68 | 4.93 | 131 | significant enhancement | 100 | 7.14 | 23.8
O=C1C(=Nn2cc(-c3ccccc3)n(-c3ccccc3)c2=S)c2cccc3cccc1c23 [5b, 2-((3,4-Diphenyl-2-thioxo-2,3-dihydro-1H-imidazol-1-yl)imino)acenaphthylen-1(2H)-one] | S phase | 52.7 ± 0.30 | 13.4 ± 0.41 | 33.8 ± 0.70 | 240 to 242 | 5.11 | 1.5 | 17.58 | – | 17.1 | 15.3 ± 0.50 | 22.7 ± 0.43% and 22.69% | 8.7 ± 0.44 | 46.6 ± 0.57 | 7.4 | 89.8 | significant enhancement | 100 | 7.78 | 25.9

Source: paper PMC10946275, “New imidazole-2-thiones linked to acenaphythylenone as dual DNA intercalators and topoisomerase II inhibitors: structural optimization, docking, and apoptosis studies” (Journal of Enzyme Inhibition and Medicinal Chemistry, 2024)
